Measurements from EP4342467A1, “KU INHIBITORS FOR USE IN TUMOR THERAPY” (Masarykova Univerzita, priority 2022, dated 2024).
Like-named read-outs stand apart in the source and are kept apart here.

How the values were obtained:
[1] = literature (Weterings et al. 2016); cited from earlier work
HCT116 cells [2] = test: cell proliferation, ATPlite assay; type: cell-based; settings: Homo sapiens, HCT-116, 120 h, read-out: Inhibition of cell proliferation IC50
Procedure: HCT116, U2OS and HeLa cells were grown in McCoy's 5a medium supplemented with 10% Fetal Bovine Serum, 2 mM L-Glutamine and Penicilin/Streptomycin 200 U/l each in the presence of Compound 1-9. After growth at 37 °C, 5% CO2 for 3 days, monolayer of cells was detached using TrypLE Express (Gibco), cells were counted using 0.4% trypan blue stain and hemocytometer. […] Number of viable cells was estimated using ATPlite kit (Perkin Elmer).

HCT116 cells [3] = test: C-circle assay (extrachromosomal circular telomeric DNA); type: cell-based, human; settings: C-circle assay in HCT116 cells treated for 3 to 7 days
Procedure: HCT116 cell were incubated for 3, 5 or 7 days in McCoy's 5a medium with 10% Fetal Bovine Serum, 2 mM L-Glutamine and Penicilin/Streptomycin 200 U/l each and supplemented with Compound 1-9. C-circle assay that utilizes rolling circle amplification of circular DNA by φ29 polymerase was performed as described in Henson, J.D., Lau, L.M., Koch, S., Martin La Rotta, N., Dagg, R.A., and Reddel, R.R. (2017). The C-Circle Assay for alternative-lengthening-of-telomeres activity. Methods 114, 74-84. Amplified circular telomeric DNA was detected by dot blot hybridization with P^32-labeled telomeric DNA oligonucleotide (5'-[…]-3' (SEQ ID NO: 6)) (Figure 4).

Ku complex = Ku complex (Homo sapiens, UniProt P12956+P13010); test: microwell protein induced fluorescent enhancement assay (mwPIFE) of Ku-DNA binding; settings: for remaining activity at 8 µM: read-out: % binding at 8 µM (100% = 0.5% DMSO); for IC50: estimated from the 0.5 to 8 µM concentration range, read-out: Inhibition of Ku-DNA binding IC50
Chain of Ku complex (P12956 whole entry): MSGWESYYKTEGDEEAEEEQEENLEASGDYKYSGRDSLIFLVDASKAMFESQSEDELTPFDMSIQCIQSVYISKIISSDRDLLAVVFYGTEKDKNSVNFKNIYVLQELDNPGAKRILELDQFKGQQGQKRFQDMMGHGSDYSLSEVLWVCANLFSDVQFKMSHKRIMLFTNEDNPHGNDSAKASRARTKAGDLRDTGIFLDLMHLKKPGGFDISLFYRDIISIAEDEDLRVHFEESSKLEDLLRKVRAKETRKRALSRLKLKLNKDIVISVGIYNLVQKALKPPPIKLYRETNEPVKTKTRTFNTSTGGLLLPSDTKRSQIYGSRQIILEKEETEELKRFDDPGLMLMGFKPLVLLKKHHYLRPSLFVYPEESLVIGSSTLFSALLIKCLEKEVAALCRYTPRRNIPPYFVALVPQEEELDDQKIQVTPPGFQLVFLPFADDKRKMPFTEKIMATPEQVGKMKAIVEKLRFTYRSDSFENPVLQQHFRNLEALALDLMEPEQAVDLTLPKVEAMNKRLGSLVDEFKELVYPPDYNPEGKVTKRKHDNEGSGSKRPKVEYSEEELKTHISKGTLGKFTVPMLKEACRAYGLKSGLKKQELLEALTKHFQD
Chain of Ku complex (P13010 whole entry): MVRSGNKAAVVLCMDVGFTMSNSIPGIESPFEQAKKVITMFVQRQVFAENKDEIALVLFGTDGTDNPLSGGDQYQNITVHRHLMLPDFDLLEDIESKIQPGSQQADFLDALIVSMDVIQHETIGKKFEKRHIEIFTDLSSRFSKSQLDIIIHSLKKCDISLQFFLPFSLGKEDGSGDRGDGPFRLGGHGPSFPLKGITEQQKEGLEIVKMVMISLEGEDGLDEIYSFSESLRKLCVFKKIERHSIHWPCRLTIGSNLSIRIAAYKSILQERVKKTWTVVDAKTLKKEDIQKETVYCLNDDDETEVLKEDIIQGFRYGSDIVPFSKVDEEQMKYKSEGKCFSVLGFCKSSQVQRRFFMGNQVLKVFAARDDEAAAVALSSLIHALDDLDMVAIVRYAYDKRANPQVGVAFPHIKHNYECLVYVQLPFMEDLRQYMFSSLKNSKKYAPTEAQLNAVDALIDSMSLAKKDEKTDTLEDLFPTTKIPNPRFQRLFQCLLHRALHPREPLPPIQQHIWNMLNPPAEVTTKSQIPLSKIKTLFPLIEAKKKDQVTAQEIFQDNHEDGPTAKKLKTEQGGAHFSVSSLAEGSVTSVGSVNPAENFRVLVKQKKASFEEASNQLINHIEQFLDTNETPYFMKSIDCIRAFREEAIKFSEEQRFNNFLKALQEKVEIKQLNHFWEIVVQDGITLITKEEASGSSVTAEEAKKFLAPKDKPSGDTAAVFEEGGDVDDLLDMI
Procedure: A rapid method for detecting protein-nucleic acid interactions by protein induced fluorescence enhancement. Sci Rep 6, 39653. mwPIFE is based on enhanced fluorescence of cyanine fluorophores attached to nucleic acid probes upon protein binding. […] The probe was immobilized in 96 well plates through biotin (Btn) attached to one end of DNA and incubated with purified Ku complex (0.5 pmol) in 50 µl of binding buffer (10 mM calcium acetate, 60 mM potassium acetate, 20 mM TRISacetate pH 7.9, 100 mg BSA/1). Ku-DNA binding was calculated from altered fluorescence measured by a fluorescence plate reader (Valuchova et al., 2016). […]

HeLa = test: combination with BIBR1532, relative growth by ATPlite; type: cell-based, human; settings: 10 µM BIBR1532, 0.25 µM iKU-1 or their combination, 4 days
HCT116 = test: as above; type: cell-based, human; settings: HCT116; 10 µM BIBR1532, 0.25 µM iKU-1 or their combination; 4 days
Procedure: 10,000 HCT116 cells were seeded in 100 µl of McCoy's 5a medium supplemented with 10% Fetal Bovine Serum, 2 mM L-Glutamine and Penicilin/Streptomycin 200 U/l for 1 day in 96well plate and treated with 10 µM BIBR1532, 0.25 µM of iKU-1 or their combination for 4 days. Number of viable cells was measured by ATPlite kit (Perkin Elmer) and normalized to the treatment with 0.5% DMSO. The results presented in Table 2 show a synergistic effect of iKU-1 and BIBR1532 on the growth of HCT116 tumor cell line. Values in the table indicate relative growth assessed by ATPlite kit compared to the control sample treated with 0.5% DMSO after 4 days of treatment.

U2OS = test: as above; type: cell-based, human; settings: 10 µM BIBR1532, 0.25 µM iKU-1 or their combination, 4 days
A2780 = test: growth of A2780 cells by ATPlite, alone and in combination with Bleomycin; type: cell-based, human; settings: A2780; 0.025 µg/ml Bleomycin, 0.5 µM iKU-1 or their combination; 7 days
Procedure: 2,000 A2780 cells were seeded in 100 µl of RPMI 1640 medium with 300 mg/l L-Glutamine and 10% Fetal Bovine Serum for 1 day in 96well plate and treated by 0.025 µg/ml of Bleomycin, 0.5 µM of iKu-1 or their combination for 7 days. Number of viable cells was measured by ATPlite kit (Perkin Elmer) and normalized to the treatment with 0.5% DMSO.
Values in the table indicate relative growth assessed by ATPlite kit compared to the control sample treated with 0.5% DMSO after 7 days of treatment.
2,000 SKOV3 and A2780 cells were seeded in 100 µl of McCoy's 5a or RPMI 1640 media, respectively, for one day and then incubated with iKU-1 for 7 days. Number of viable cells was measured by ATPlite kit (Perkin Elmer) and normalized to the treatment with 0.5% DMSO.

[4] = ATPlite assay in HCT116 cells treated for 5 days
[5] = mwPIFE, 8 µM inhibitor compared to 0.5% DMSO

Row | Molecule | Concentration inducing c-circle formation (HCT116 cells [3]) [µM] | IC50 (HCT116 cells [2]) [µM] | IC50 (Ku complex; mwPIFE) [µM] | remaining activity at 8 µM (Ku complex) [%] | further results
1 | COc1ccc(CCNc2ncc3c(=O)n(-c4cccc(F)c4)c(=O)[nH]c3n2)cc1OC [STL127705] |  |  |  |  | concentration conferring enhanced sensitivity to irradiation [1]: 20 to 30 µM
2 | O=C(Nc1nc(-c2ccccn2)cs1)c1cccnc1 [Compound 2] | 5 |  |  |  | IC50 (HCT116 cells [2]; [4]): < 5 µM; remaining activity at 8 µM (Ku complex; [5]): 97%
3 | O=C(Nc1nc(-c2cccnc2)cs1)c1cncc(Br)c1 [Compound 7] | 50 | > 20 | > 8 | 55 | 
4 | O=C(Nc1nc(-c2ccccn2)cs1)c1ccc(NC2CC2)nc1 [Compound 4] | 10 | 8 | 7 | 47 | 
5 | C/C(=C\C(=O)Nc1ccccc1C(=O)O)c1ccc2ccccc2c1 [BIBR1532, reference compound] |  |  |  |  | relative growth assessed by ATPlite kit compared to the control sample treated with 0.5% DMSO (HeLa): 0.92; relative growth assessed by ATPlite kit compared to the control sample treated with 0.5% DMSO (HCT116): 0.88; relative growth assessed by ATPlite kit compared to the control sample treated with 0.5% DMSO (U2OS): 0.88
6 | CC(=O)NCCc1ccc(-c2csc(NC(=O)c3cncc(Br)c3)n2)cc1 [Compound 5] |  | < 5 | > 8 | 75 | 
7 | O=C(Nc1nc(-c2ccccc2)cs1)c1cncc(Br)c1 [Compound 8] | 50 | > 20 | > 8 | 71 | 
8 | CC(=O)Nc1ccc(-c2csc(NC(=O)c3cncc(Br)c3)n2)cc1 [Compound 6] |  | 20 | > 8 | 55 | 
9 | O=C(Nc1nc(-c2ccccn2)cs1)c1cccc(Br)c1 [Compound 3] |  |  |  |  | IC50 (HCT116 cells [2]; [4]): < 5 µM; remaining activity at 8 µM (Ku complex; [5]): 76%
10 | Cc1ccc(C(=O)Nc2nc(-c3ccccc3)cs2)cc1 [Compound 9] | 20 |  | > 8 |  | IC50 (HCT116 cells [2]; [4]): 9 µM; remaining activity at 8 µM (Ku complex; [5]): 99%
11 | Bleomycin [reference compound] |  |  |  |  | relative growth assessed by ATPlite kit compared to the control sample treated with 0.5% DMSO (A2780): 1.00
